Where a name gives a salt, the structure may show the parent alone.
Assays:
[1] = biological target: T1, recombinant human liver glycogen phosphorylase (Homo sapiens, UniProt P06737); experiment: Measuring liver glycogen phosphorylase activity (forward reaction system, NADPH absorbance at 340 nm); format: biochemical
T1 construct: made in house; host or cells: Sf9 insect cells (crude homogenate, diluted, used as the enzyme solution)
T1 sequence (P06737 1-847): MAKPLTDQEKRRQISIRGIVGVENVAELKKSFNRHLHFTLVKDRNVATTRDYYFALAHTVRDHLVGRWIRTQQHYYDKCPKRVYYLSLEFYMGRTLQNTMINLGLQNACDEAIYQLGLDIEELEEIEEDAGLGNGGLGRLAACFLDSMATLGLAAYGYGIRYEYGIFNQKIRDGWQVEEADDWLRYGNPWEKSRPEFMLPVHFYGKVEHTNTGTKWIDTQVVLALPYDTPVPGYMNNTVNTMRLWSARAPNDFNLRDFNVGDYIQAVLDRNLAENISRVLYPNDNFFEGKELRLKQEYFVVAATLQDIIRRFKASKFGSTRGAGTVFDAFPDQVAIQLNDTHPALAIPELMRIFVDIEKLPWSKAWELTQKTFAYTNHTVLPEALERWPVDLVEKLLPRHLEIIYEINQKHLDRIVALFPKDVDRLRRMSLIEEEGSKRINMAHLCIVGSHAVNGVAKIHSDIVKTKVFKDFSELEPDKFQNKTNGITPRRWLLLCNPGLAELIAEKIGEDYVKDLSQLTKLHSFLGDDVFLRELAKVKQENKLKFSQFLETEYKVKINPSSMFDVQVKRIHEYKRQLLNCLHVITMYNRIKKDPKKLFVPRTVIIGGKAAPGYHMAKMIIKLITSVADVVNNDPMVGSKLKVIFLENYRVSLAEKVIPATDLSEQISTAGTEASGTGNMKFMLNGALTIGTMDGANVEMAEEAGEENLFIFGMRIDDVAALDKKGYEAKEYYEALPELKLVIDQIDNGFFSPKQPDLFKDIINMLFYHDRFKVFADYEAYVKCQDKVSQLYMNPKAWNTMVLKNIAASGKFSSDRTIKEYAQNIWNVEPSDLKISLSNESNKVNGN
Summary of the method: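 Sf9 homogenate expressing the enzyme, in pH 6.8 BES/EDTA, with glycogen and phosphate substrate plus glucose, coupled via phosphoglucomutase/G6PDH to NADPH formation. A340 change over 75 min at room temperature, blank-corrected; IC50 linearly interpolated between the two concentrations bracketing 50% inhibition versus 1% DMSO control.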

db/db mice = experiment: Measuring blood plasma glucose concentration in db/db mice (hypoglycemic effect); format: in vivo; design: key: ++: compounds exhibiting statistically significant hypoglycemic effect at a dose of 10 mg/kg or less; +: compounds exhibiting not significant but obvious hypoglycemic effect at a dose of 10 mg/kg; conditions: for vivo (hypoglycemic effect in db/db mice): db/db mice fasted 4 h, oral administration, plasma glucose 1 and 3 hours after administration, dose 10 mg/kg or less, Dunnett test vs solvent; for vivo (hypoglycemic effect): db/db mice, blood plasma glucose, dose of 10 mg/kg or less
Protocol: 2. Exemplary Test (2) Method for Measuring Blood Plasma Glucose Concentration
Using db/db mice representing an obesity type of diabetic model were used to examine the effect of compound (1) of the present invention on glucose concentrations in plasma. Plasma glucose concentrations of the db/db mice (9-18 weeks old) were measured, and the mice were divided into groups each of 5 or 8 mice such that there would be no difference in the average value of plasma glucose concentrations. After fasting for four hours, the example compound or the solvent (0.5% methylcellulose) was administered orally to the db/db mice, and plasma glucose concentrations were measured 1 and 3 hours after administration. The analysis of the hypoglycemic effect of the example compound was performed through a statistical test at every hour between the group receiving the solvent and the groups of example compound (Dunnett test).

[2] = enzyme inhibitory activity with respect to liver glycogen phosphorylase, class symbols
[3] = human liver glycogen phosphorylase, class symbol

IC50 [1, 2] | IC50 [1, 3] | SMILES | vivo (hypoglycemic effect in db/db mice) (db/db mice) | vivo (hypoglycemic effect) (db/db mice) | vivo (hypoglycemic effect in db/db mice) (db/db mice; 10 mg/kg)
< 100 nM | – | Cl.O=C(NCc1ccccn1)c1cc(NC(=O)c2cc(F)c(F)cc2Cl)[nH]n1 [Example 3-20] | + | – | –
< 100 nM | – | CN(C)c1nc(Cl)ccc1CNC(=O)c1cc(NC(=O)c2cc(F)c(F)cc2Cl)[nH]n1 [Example 5-30] | + | – | –
< 100 nM | – | COc1ccnc(CNC(=O)c2cc(NC(=O)c3cc(F)c(F)cc3Cl)[nH]n2)c1OC [Example 1-59] | ++ | – | –
< 100 nM | – | COCCN(C(=O)c1cc(NC(=O)c2cc(F)c(F)cc2Cl)[nH]n1)C1CCCCC1 [Example 1-90] | + | – | –
< 100 nM | – | CN(C(=O)c1cc(NC(=O)c2cc(F)c(F)cc2Cl)[nH]n1)C1CCCCC1 [Example 1-78] | + | – | –
< 100 nM | – | COc1ccc(CNC(=O)c2cc(NC(=O)c3cc(F)c(F)cc3Cl)[nH]n2)cc1 [Example 1-68] | + | – | –
– | < 100 nM | Cc1cc(F)c(F)cc1C(=O)Nc1cc(C(=O)N(C)c2ccc(C(=O)[O-])cc2)n[nH]1.[Na+] [Example 7-1] | – | + | –
< 100 nM | – | COc1cccc(CNC(=O)c2cc(NC(=O)c3cc(F)c(F)cc3Cl)[nH]n2)c1 [Example 1-67] | + | – | –
< 100 nM | – | Cl.Cn1c(CNC(=O)c2cc(NC(=O)c3cc(F)c(F)cc3Cl)[nH]n2)nc2ccccc21 [Example 1-50] | + | – | –
– | < 100 nM | CN(C)C=Nc1ccc(CNC(=O)c2cc(NC(=O)c3cc(F)c(F)cc3Cl)[nH]n2)cc1.Cl [Example 6-23] | – | + | –
< 100 nM | – | CCCN(Cc1cccnc1)C(=O)c1cc(NC(=O)c2cc(F)c(F)cc2Cl)[nH]n1 [Example 1-117] | + | – | –
< 100 nM | – | O=C(NCc1cscn1)c1cc(NC(=O)c2cc(F)c(F)cc2Cl)[nH]n1 [Example 1-38] | + | – | –
< 100 nM | – | COc1ccc(CNC(=O)c2cc(NC(=O)c3cc(F)c(F)cc3Cl)[nH]n2)cn1 [Example 5-16] | – | – | +
– | – | CN(C)c1ccc(CNC(=O)c2cc(NC(=O)c3cc(F)c(F)cc3Cl)[nH]n2)cc1.Cl [Example 3-29] | + | – | –
< 100 nM | – | COc1cccc(OC)c1CNC(=O)c1cc(NC(=O)c2cc(F)c(F)cc2Cl)[nH]n1 [Example 1-15] | + | – | –
< 100 nM | – | Cl.O=C(NCc1ccc2c(c1)OCO2)c1cc(NC(=O)c2cc(F)c(F)cc2Cl)[nH]n1 [Example 1-84] | ++ | – | –
< 100 nM | – | O=C(NN1CCOCC1)c1cccc(CNC(=O)c2cc(NC(=O)c3cc(F)c(F)cc3Cl)[nH]n2)c1 [Example 5-12] | + | – | –
< 100 nM | – | O=C(NCc1cccnc1Cl)c1cc(NC(=O)c2cc(F)c(F)cc2Cl)[nH]n1 [Example 2-24] | + | – | –
< 100 nM | – | O=C(NCc1ccc(OCC(F)(F)F)nc1)c1cc(NC(=O)c2cc(F)c(F)cc2Cl)[nH]n1 [Example 1-39] | + | – | –
< 100 nM | – | O=C(NCc1csc(-c2cccnc2)n1)c1cc(NC(=O)c2cc(F)c(F)cc2Cl)[nH]n1 [Example 1-41] | + | – | –
– | – | CN(C(=O)c1cc(NC(=O)c2cc(F)c(F)cc2Cl)[nH]n1)c1ccc(C(=O)[O-])cc1.[Na+] [Example 4-2-1, 4-{[5-(2-chloro-4,5-difluoro-benzoylamino)-1H-pyrazole-3-carbonyl]-methyl-amino}-benzoic acid sodium salt] | ++ | – | –

IC50 [1, 2] | IC50 [1, 3] | SMILES | vivo (hypoglycemic effect in db/db mice) (db/db mice) | vivo (hypoglycemic effect) (db/db mice) | vivo (hypoglycemic effect in db/db mice) (db/db mice; 10 mg/kg)
– | < 100 nM | O=C(NCc1cccnc1)c1cc(NC(=O)c2cc(F)c(Cl)cc2Cl)[nH]n1 [Example 7-4] | – | ++ | –
– | – | Cc1nn(C)c(C)c1CNC(=O)c1cc(NC(=O)c2cc(F)c(F)cc2Cl)[nH]n1 [Example 5-9] | + | – | –
< 100 nM | – | COc1cc(C)ncc1CNC(=O)c1cc(NC(=O)c2cc(F)c(F)cc2Cl)[nH]n1 [Example 2-6, 5-(2-chloro-4,5-difluoro-benzoylamino)-1H-pyrazole-3-carboxylic acid (4-methoxy-6-methyl-pyridin-3-ylmethyl)-amide] | ++ | – | –
– | – | O=C(NCc1ccc(N2CCS(=O)(=O)CC2)nc1)c1cc(NC(=O)c2cc(F)c(F)cc2Cl)[nH]n1 [Example 5-44] | + | – | –
< 100 nM | – | COCCCN(C(=O)c1cc(NC(=O)c2cc(F)c(F)cc2Cl)[nH]n1)C1CCCCC1 [Example 1-99] | + | – | –
– | – | O=C(NCc1ccc(N2CCSCC2)nc1)c1cc(NC(=O)c2cc(F)c(F)cc2Cl)[nH]n1 [Example 5-43] | + | – | –
< 100 nM | – | Cc1cc(C)c(CNC(=O)c2cc(NC(=O)c3cc(F)c(F)cc3Cl)[nH]n2)cn1 [Example 2-4-1, 5-(2-chloro-4,5-difluoro-benzoylamino)-1H-pyrazole-3-carboxylic acid (4,6-dimethyl-pyridin-3-ylmethyl)-amide dihydrochloride] | ++ | – | –
– | – | Cl.O=C(NCc1ccc(-c2csnn2)cc1)c1cc(NC(=O)c2cc(F)c(F)cc2Cl)[nH]n1 [Example 5-31] | + | – | –
< 100 nM | – | O=C(Nc1cc(C(=O)N(Cc2ccccc2)c2ccccc2)n[nH]1)c1cc(F)c(F)cc1Cl [Example 4-9] | + | – | –
< 100 nM | – | Cc1ccc(CNC(=O)c2cc(NC(=O)c3cc(F)c(F)cc3Cl)[nH]n2)c(Cl)n1 [Example 1-56] | + | – | –
– | – | COc1cncc(OC)c1CNC(=O)c1cc(NC(=O)c2cc(F)c(F)cc2Cl)[nH]n1 [Example 5-17] | + | – | –
< 100 nM | – | CN(C)c1ccc(CNC(=O)c2cc(NC(=O)c3cc(F)c(F)cc3Cl)[nH]n2)cn1 [Example 1-129] | – | – | +
< 100 nM | – | O=C(NCc1c(Cl)cccc1Cl)c1cc(NC(=O)c2cc(F)c(F)cc2Cl)[nH]n1 [Example 1-134] | + | – | –
100 to 300 nM | – | CN(C(=O)c1cc(NC(=O)c2cc(F)c(F)cc2Cl)[nH]n1)c1ccccc1 [Example 3-4] | + | – | –
< 100 nM | – | O=C(NCc1ccc(Cl)nc1)c1cc(NC(=O)c2cc(F)c(F)cc2Cl)[nH]n1 [Example 2-23] | + | – | –
– | – | CS(=O)(=O)O.Cc1noc(C)c1CNC(=O)c1cc(NC(=O)c2cc(F)c(F)cc2Cl)[nH]n1 [Example 5-10] | + | – | –
< 100 nM | – | CCCN(Cc1ccc(OC)nc1)C(=O)c1cc(NC(=O)c2cc(F)c(F)cc2Cl)[nH]n1 [Example 1-116] | ++ | – | –
< 100 nM | – | O=C(O)c1cccc(CNC(=O)c2cc(NC(=O)c3cc(F)c(F)cc3Cl)[nH]n2)c1 [Example 3-39] | + | – | –
< 100 nM | – | CCOCCN(C(=O)c1cc(NC(=O)c2cc(F)c(F)cc2Cl)[nH]n1)c1ccccc1 [Example 4-18] | + | – | –
– | – | O=C(NCc1cccnc1)c1cc(NC(=O)c2cc(F)c(F)cc2Cl)[nH]n1 [Example 1-1-1, 5-(2-chloro-4,5-difluoro-benzoylamino)-1H-pyrazole-3-carboxylic acid (pyridin-3-ylmethyl)-amide dihydrochloride] | ++ | – | –
– | – | Cc1noc(C)c1CNC(=O)c1cc(NC(=O)c2cc(F)c(F)cc2Cl)[nH]n1.Cl [Example 5-8] | + | – | –

— patent publication US20070032529A1, “Pyrazole compounds and their use as antidiabetes agents” (Japan Tobacco Inc., priority 2005, published 2007)
